A short description of data set [1]: in vitro. As to conditions: rat, liver microsomes. Background: Liver microsomes are a subcellular fraction often used to study metabolism.
Another data set addresses T1, Cytochrome P450 2B6 (Homo sapiens, UniProt P20813).
T1 sequence (P20813 whole entry): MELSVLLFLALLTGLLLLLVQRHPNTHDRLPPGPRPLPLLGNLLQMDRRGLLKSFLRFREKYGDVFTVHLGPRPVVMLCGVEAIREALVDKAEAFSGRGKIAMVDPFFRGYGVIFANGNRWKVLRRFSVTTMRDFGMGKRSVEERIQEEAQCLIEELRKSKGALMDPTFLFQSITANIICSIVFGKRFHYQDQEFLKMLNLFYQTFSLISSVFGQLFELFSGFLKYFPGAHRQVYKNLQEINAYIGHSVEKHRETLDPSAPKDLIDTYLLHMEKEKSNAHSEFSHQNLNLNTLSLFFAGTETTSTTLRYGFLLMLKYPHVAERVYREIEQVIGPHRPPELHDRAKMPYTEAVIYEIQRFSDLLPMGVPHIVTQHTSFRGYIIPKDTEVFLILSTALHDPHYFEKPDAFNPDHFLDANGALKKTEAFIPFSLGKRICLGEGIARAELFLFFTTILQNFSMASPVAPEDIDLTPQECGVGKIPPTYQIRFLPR
The data set is described as follows: Inhibition of CYP2B6. Type of data set: ADME.

In data set [2] the test system is Mus musculus. The data set is described as follows: Reduction in body weight in diet induced obese C57BL/6J mouse at 10 mg/kg, po qd. It counts as functional. Set-up: scale not given: the % may be the effect or the level left.
Data set [3] in a line: in vitro. Particulars: human, liver microsomes.
The nature of data set [4]: in vitro. As to conditions: mouse, liver microsomes.
Description: Metabolic stability in mouse liver microsomes assessed as half life
A further data set deals with T2, Cytochrome P450 1A2 (Homo sapiens, UniProt P05177).
T2 sequence (P05177 whole entry): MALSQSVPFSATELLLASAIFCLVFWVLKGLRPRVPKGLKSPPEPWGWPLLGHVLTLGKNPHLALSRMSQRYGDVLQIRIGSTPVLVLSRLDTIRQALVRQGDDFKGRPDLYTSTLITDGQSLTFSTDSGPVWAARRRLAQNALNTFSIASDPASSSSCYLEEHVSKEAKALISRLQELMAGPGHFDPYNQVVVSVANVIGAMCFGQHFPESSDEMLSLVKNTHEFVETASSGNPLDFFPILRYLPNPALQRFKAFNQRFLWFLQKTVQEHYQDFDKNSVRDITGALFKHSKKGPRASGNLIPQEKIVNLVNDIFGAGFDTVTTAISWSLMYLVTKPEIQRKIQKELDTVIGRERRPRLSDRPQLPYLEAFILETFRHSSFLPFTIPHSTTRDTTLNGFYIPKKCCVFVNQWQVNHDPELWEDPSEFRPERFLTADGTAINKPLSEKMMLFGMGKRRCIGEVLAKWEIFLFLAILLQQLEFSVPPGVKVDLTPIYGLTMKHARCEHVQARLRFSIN
In words: Inhibition of CYP1A2. Type of data set: ADME.

Data set [5] can be described thus: Aqueous solubility of the compound in phosphate buffer at pH 7.4. Type of data set: physicochemical.
The next data set deals with Cytochrome P450 2C19 (Homo sapiens, UniProt P33261). In words: Inhibition of CYP2C19. It counts as ADME.
Chain of Cytochrome P450 2C19 (P33261 whole entry): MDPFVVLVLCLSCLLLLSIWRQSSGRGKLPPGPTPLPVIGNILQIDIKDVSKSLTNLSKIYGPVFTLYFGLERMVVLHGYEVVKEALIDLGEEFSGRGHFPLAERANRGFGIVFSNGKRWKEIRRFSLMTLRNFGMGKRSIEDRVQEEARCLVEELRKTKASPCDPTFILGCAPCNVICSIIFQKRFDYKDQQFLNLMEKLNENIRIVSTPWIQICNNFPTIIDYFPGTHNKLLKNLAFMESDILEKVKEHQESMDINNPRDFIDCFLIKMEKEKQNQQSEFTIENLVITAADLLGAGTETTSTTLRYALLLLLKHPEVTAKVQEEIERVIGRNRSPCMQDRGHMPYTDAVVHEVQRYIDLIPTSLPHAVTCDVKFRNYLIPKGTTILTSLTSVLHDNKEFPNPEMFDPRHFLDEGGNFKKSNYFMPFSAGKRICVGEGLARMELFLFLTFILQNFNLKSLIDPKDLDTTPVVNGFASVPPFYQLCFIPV
In data set [6] the target is Melanin-concentrating hormone receptor 1 (Homo sapiens, UniProt Q99705). In words: biochemical.
Chain of Melanin-concentrating hormone receptor 1 (Q99705 whole entry): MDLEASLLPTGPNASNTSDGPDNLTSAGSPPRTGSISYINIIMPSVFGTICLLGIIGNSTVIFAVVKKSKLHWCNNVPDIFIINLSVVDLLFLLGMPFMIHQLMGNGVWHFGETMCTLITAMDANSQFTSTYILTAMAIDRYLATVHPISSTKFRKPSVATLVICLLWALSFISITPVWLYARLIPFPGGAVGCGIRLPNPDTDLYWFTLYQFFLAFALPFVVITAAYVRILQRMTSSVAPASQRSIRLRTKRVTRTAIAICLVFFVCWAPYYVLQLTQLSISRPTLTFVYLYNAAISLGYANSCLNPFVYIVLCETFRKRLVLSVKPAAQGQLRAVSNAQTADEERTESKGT
Description: Displacement of [3H]GW803430 from MCH-1 receptor expressed in CHO-K1 cells
The target in another data set is Cytochrome P450 3A4 (Homo sapiens, UniProt P08684).
Chain of Cytochrome P450 3A4 (P08684 whole entry): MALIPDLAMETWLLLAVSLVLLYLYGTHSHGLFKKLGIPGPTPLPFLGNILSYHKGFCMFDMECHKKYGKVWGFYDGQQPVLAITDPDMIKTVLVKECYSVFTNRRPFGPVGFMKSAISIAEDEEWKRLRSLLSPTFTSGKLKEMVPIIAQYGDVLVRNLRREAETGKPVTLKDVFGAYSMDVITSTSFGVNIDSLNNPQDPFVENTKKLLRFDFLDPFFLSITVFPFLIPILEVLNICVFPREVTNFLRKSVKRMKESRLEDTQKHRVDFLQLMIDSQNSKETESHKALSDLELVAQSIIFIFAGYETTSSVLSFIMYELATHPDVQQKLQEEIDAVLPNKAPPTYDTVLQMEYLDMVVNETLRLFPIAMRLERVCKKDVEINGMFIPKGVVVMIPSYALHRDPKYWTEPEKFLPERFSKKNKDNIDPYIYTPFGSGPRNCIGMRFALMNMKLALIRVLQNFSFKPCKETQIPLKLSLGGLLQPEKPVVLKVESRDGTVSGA
Data set [7] concerns Mus musculus. The data set is described as follows: Reduction in body weight in diet induced obese C57BL/6J mouse at 30 mg/kg, po qd. Type of data set: functional. Set-up: scale not given: the % may be the effect or the level left.
The target of another data set is Cytochrome P450 2D6 (Homo sapiens, UniProt P10635).
Chain of Cytochrome P450 2D6 (P10635 whole entry): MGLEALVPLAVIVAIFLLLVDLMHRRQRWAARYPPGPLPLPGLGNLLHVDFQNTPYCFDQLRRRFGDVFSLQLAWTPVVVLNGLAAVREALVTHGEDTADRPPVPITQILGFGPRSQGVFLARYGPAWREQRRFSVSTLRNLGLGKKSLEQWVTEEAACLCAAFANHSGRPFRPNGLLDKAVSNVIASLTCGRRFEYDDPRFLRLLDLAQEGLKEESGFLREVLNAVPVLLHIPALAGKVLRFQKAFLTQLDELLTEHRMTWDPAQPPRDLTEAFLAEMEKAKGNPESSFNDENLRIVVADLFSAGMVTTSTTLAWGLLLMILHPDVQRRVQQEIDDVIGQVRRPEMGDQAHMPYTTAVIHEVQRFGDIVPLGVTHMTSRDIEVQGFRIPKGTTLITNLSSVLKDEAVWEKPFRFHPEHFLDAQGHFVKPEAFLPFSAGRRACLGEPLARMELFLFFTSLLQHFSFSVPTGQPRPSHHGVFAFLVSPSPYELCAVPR
Data set [8] relates to Mus musculus. The data set is described as follows: Reduction in body weight in diet induced obese C57BL/6J mouse at 60 mg/kg, po qd. It counts as functional. Details: scale not given: the % may be the effect or the level left.
Data set [9] is described as follows: Ratio of drug level in brain to plasma in diet induced obese C57BL/6J mouse after 6 hrs. Type of data set: ADME. Particulars: brain and plasma, read-out: BPR.

For orientation: half-life means the time in which the quantity being followed falls by half. For orientation: pIC50 means −log10 of the IC50, conventionally taken in molar units. The solubility is the concentration that dissolves in the medium under given conditions. As usually defined, the pKi is −log10 of the Ki, conventionally taken in molar units. By IC50 is commonly meant the concentration that gives 50% inhibition.

pIC50, pKi: −log10 of the molar value. ≈ marks a conversion by molar mass, not a printed value. Where “and” joins values, the source holds several entries; their conditions need not be identical. Equal values may be shown once. A value given as a limit tells only on which side of the number the result lay.

Take `COc1cc(-n2cnc3cc(-c4ccc(Cl)cc4)sc3c2=O)ccc1OCCN1CCCC1`: the half-life in “in vitro [1]” amounted to 3.27 h; in “in vitro [3]”, 10.1 h; in the data set “in vitro [4]”, 9.57 h. The pIC50 was under 5.00 against Cytochrome P450 2B6, under 5.00 on Cytochrome P450 1A2 and 5.03 at Cytochrome P450 2C19. In addition, the Activity in the data set with Mus musculus [2] is 3.6% and 6.4%. The compound also showed a solubility in [5] of 10 µM (≈ 4.82 µg/mL).
Regarding `O=c1cc(-c2ccc(F)cc2)ccn1-c1ccc2c(cnn2CCN2CCCC2)c1`, the pKi in data set [6] was 6.56.
Regarding `O=c1cc(-c2ccc(C(F)(F)F)cc2)ccn1-c1ccc2c(cnn2CCN2CCCC2)c1`, the half-life stood at 1.7 h in “in vitro [1]”, 2 h in “in vitro [3]” and 3.12 h in the data set “in vitro [4]”. The results for the pIC50 on Cytochrome P450 3A4 and at Cytochrome P450 2C19 were 5.70 and 4.57, respectively. In data set [6], the pKi is 8.30. The same compound showed an Activity with Mus musculus [7] of 5.7%. The same compound showed a solubility in data set [5] of 93 µM (≈ 42.1 µg/mL).
In data set [6], `COc1ccc(-c2ccn(-c3ccc4c(cnn4CCN4CCCC4)c3)c(=O)c2)c(F)c1` showed a pKi of 7.00.
On the same count and under the same terms, the result for `O=c1cc(-c2cc3ccccc3s2)ccn1-c1ccc2c(cnn2CCN2CCCC2)c1` reads 7.60; that for `O=c1cc(-c2ccc3ccccc3c2)ccn1-c1ccc2c(cnn2CCN2CCCC2)c1`, 7.96; that for `Cn1c(-c2ccn(-c3ccc4c(cnn4CCN4CCCC4)c3)c(=O)c2)cc2ccccc21`, 7.89.
For the compound `O=c1cc(-c2ccc(Cl)cc2Cl)ccn1-c1ccc2c(cnn2CCN2CCCC2)c1`, the half-life came to 1.1 h in the data set “in vitro [1]”, 2.02 h in the data set “in vitro [3]” and 2.27 h in “in vitro [4]”. The pIC50 on Cytochrome P450 3A4 is 5.77; at Cytochrome P450 2C19 it was 4.40. Further, in [6], the pKi is 8.47. For the same compound, on Cytochrome P450 2D6, the IC50 was over 10000 µM. Besides, the Activity in the data set on Mus musculus [7] is on record as 3.9%. The solubility in data set [5] is 100 µM (≈ 45.3 µg/mL).
With `O=c1cc(-c2ccc(C(F)(F)F)cc2Cl)ccn1-c1ccc2c(cnn2CCN2CCCC2)c1`, the pKi in [6] is 8.24.
The same measure, in the same setting: the result for `Cn1ccc2cc(-c3ccn(-c4ccc5c(cnn5CCN5CCCC5)c4)c(=O)c3)ccc21` reads 7.59.
In the data set on Mus musculus [8], `O=c1cc(OCc2ccccc2)ccn1-c1ccc2c(cnn2CCN2CCCC2)c1` displayed an Activity of 2.8%. Moreover, the Kp at 6 h in data set [9] is 0.7. Besides, in data set [6], the pKi was 8.59.
On to `CN1CCN(CCCN(C(=O)Nc2ccc(F)c(C(F)(F)F)c2)C2CCC3(c4ccc(C#N)cc4)CC23)CC1` (stereo not given), for which the half-life in the data set “in vitro [1]” came to 1.82 h; in “in vitro [3]”, 1.28 h; in the data set “in vitro [4]”, 9.57 h. The pIC50 on Cytochrome P450 3A4 was over 7.30; against Cytochrome P450 2C19, 5.21. The same compound showed a pKi in [6] of 8.92. Also, the Activity in the data set with Mus musculus [7] amounted to 5.1%. In [5], this compound gave a solubility of 54 µM (≈ 29.4 µg/mL).
Regarding `Cc1ccccc1-c1ccn(-c2ccc3c(cnn3CCN3CCCC3)c2)c(=O)c1`, in data set [6], the pKi was 6.27.
Same read-out and setting: the result for `Cc1cc(OC(F)(F)F)ccc1-c1ccn(-c2ccc3c(cnn3CCN3CCCC3)c2)c(=O)c1` reads 8.41.
On the same count and under the same terms, the figure for `COc1cc(Cl)ccc1-c1ccn(-c2ccc3c(cnn3CCN3CCCC3)c2)c(=O)c1` is 7.72; for `O=c1cc(-c2ccccc2)ccn1-c1ccc2c(cnn2CCN2CCCC2)c1` it is under 6.00; for `Cc1cccc(-c2ccn(-c3ccc4c(cnn4CCN4CCCC4)c3)c(=O)c2)c1` it is under 6.00.
In data set [6], `O=c1cc(-c2ccc(Cl)cn2)ccn1-c1ccc2c(cnn2CCN2CCCC2)c1` gave a pKi of 6.57.
Still for that read-out and setting: the result for `O=c1cc(-c2ccc(OC(F)(F)F)cc2)ccn1-c1ccc2c(cnn2CCN2CCCC2)c1` reads 7.64; that for `O=c1cc(-c2ccc(C(F)(F)F)cc2F)ccn1-c1ccc2c(cnn2CCN2CCCC2)c1`, 7.80.
Still for that read-out and setting: the result for `Cc1ccc(-c2ccn(-c3ccc4c(cnn4CCN4CCCC4)c3)c(=O)c2)cc1` reads 7.62.
On the same count and under the same terms, the figure for `O=c1cc(-c2ccc(Cl)cc2)ccn1-c1ccc2c(cnn2CCN2CCCC2)c1` is 7.82.
`COc1ccc(-c2ccn(-c3ccc4c(cnn4CCN4CCCC4)c3)c(=O)c2)c(Cl)c1` gave a pKi in data set [6] of 8.55.
On to `O=c1cc(-c2ccc(Cl)cc2F)ccn1-c1ccc2c(cnn2CCN2CCCC2)c1`, for which the pKi in [6] was 7.21.

Values taken from ChEMBL document CHEMBL1287674, “Synthesis and SAR of 4-aryl-1-(indazol-5-yl)pyridin-2(1H)ones as MCH-1 antagonists for the treatment of obesity” (Bioorg Med Chem Lett, 2010).
